From patent US11753407B2, “Compounds for treating spinal muscular atrophy” (PTC Therapeutics, Inc., priority 2012, dated 2023) come the findings set out here.

Molecules are shown by their SMILES. Where only a bound is given, the exact number is not on record here.

Series [1] relates to SMN2 minigene mRNA (SMN2-A minigene) in HEK293H cells. The series is described as follows: SMN2 minigene mRNA splicing RT-qPCR assay in cultured cells. The settings on record: Homo sapiens, HEK293-H; concentration increasing full length SMN2 mRNA 1.5-fold relative to vehicle-treated cells; HEK293H cells with SMN2-A minigene, 24 hours, 7-point concentration data; read-out: EC1.5x for production of full length SMN2 mRNA. It is filed as cell-based, human. An outline of the steps: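 Cells are seeded, left to attach 4-6 h, then dosed with test compound across seven concentrations and incubated 24 h. Lysates undergo RT-qPCR with primers/probe specific to the exon 7-containing minigene transcript, co-amplified with GAPDH. Fold change over vehicle is calculated, and EC1.5× marks the 1.5-fold point.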
In general terms: In qPCR the cycle at which signal appears reflects the starting amount.

Series [2] deals with Smn protein in SMA patient fibroblast cells (GM03813). The series is described as follows: Smn protein assay in cultured cells (SMN HTRF). It is filed as cell-based, human. Particulars: SMA patient fibroblast cells, 48 hours; for EC1.5x for Smn protein expression: 7-point concentration curve, SMN HTRF, concentration producing 1.5 times Smn protein vs DMSO vehicle control; for maximum fold (Fold) increase of Smn protein: 7-point concentration data, fold relative to vehicle control. An outline of the steps: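 Patient-derived SMA fibroblasts are plated, given compound for 48 h, then lysed in RIPA buffer with protease inhibitors. Lysate Smn is detected by an anti-SMN d2/kryptate HTRF pair incubated overnight. The normalized ΔF is divided by the vehicle ΔF to give fold change, from which EC1.5× and maximum fold are taken.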

A word on the melting point: it is the temperature, or range, at which the solid turns liquid. As for `Cc1nc2cc(-c3cc(=O)n4cc(N5CCCNCC5)ccc4n3)ccc2s1` [Compound 161, 7-(1,4-diazepan-1-yl)-2-(2-methyl-1,3-benzothiazol-5-yl)-4H-pyrido[1,2-a]pyrimidin-4-one], the melting point lay within 208 to 212 °C. In addition, the EC (1.5-fold increase) in series [1] lay within 0.3 to 1 µM. In series [2], the “EC1.5x for Smn protein expression” value is “** (an EC1.5× between >1 μM and ≤3 μM is indicated by two stars (**))”; the “maximum fold (Fold) increase of Smn protein” value (shortened to “maximum fold (Fold) increase”) is “*** (a fold increase between >1.35 and ≤1.5 is indicated by three stars (***))”.

For the compound `Cc1csc(-c2cc(=O)n3cc(N4CCN[C@@H](C)C4)ccc3n2)n1` [Compound 162, 7-[(3S)-3-methylpiperazin-1-yl]-2-(4-methyl-1,3-thiazol-2-yl)-4H-pyrido[1,2-a]pyrimidin-4-one], the melting point was in the range of 225 to 230 °C. The EC (1.5-fold increase) in series [1] fell in the range of 0.3 to 1 µM. In series [2], the “EC1.5x for Smn protein expression” value was “** (an EC1.5× between >1 μM and ≤3 μM is indicated by two stars (**))”; the “maximum fold (Fold) increase” value is “**** (a fold increase between >1.5 and ≤1.65 is indicated by four stars (****))”.

For the compound `COc1ccc(-c2cc(=O)n3cc(N4CC[C@H](NC(C)C)C4)ccc3n2)cc1OC` [Compound 165, 2-(3,4-dimethoxyphenyl)-7-[(3S)-3-(propan-2-ylamino)pyrrolidin-1-yl]-4H-pyrido[1,2-a]pyrimidin-4-one], the melting point was 169 to 172 °C. Besides, the EC (1.5-fold increase) in series [1] fell in the range of 1 to 3 µM. In series [2], the “maximum fold (Fold) increase” value was “** (a fold increase between >1.2 and ≤1.35 is indicated by two stars (**))”.

In the case of `COc1ccc(-c2cc(=O)n3cc(N4CCCN(C)CC4)ccc3n2)cc1F` [Compound 166, 2-(3-fluoro-4-methoxyphenyl)-7-(4-methyl-1,4-diazepan-1-yl)-4H-pyrido[1,2-a]pyrimidin-4-one], the melting point was in the range of 176 to 178 °C. For the same compound, the EC (1.5-fold increase) in series [1] lay in the range of 0.3 to 1 µM. For the same compound, the “maximum fold (Fold) increase” value in series [2] is “** (a fold increase between >1.2 and ≤1.35 is indicated by two stars (**))”.

Regarding `COc1ccc(-c2cc(=O)n3cc(N4CCNCC4)ccc3n2)cc1[N+](=O)[O-]` [Compound 167, 2-(4-methoxy-3-nitrophenyl)-7-(piperazin-1-yl)-4H-pyrido[1,2-a]pyrimidin-4-one], the melting point is 183 to 187 °C. Moreover, the EC (1.5-fold increase) in series [1] was less than 0.1 µM. Besides, in series [2], the “EC1.5x for Smn protein expression” value is “** (an EC1.5× between >1 μM and ≤3 μM is indicated by two stars (**))”; the “maximum fold (Fold) increase” value is “*** (a fold increase between >1.35 and ≤1.5 is indicated by three stars (***))”.

Consider `CSc1ccc(-c2cc(=O)n3cc(N4CCNCC4)ccc3n2)cc1F` [Compound 168, 2-[3-fluoro-4-(methylsulfanyl)phenyl]-7-(piperazin-1-yl)-4H-pyrido[1,2-a]pyrimidin-4-one], for which the melting point was in the range of 174 to 176 °C. Further, the EC (1.5-fold increase) in series [1] was in the range of 0.3 to 1 µM. The “maximum fold (Fold) increase” value in series [2] is “* (A maximum fold increase of ≤1.2 is indicated by one star (*))”.

Compound `Cc1cn2cc(-c3cc(=O)n4cc(N5CCCN(C)CC5)ccc4n3)ccc2n1` [Compound 169, 7-(4-methyl-1,4-diazepan-1-yl)-2-(2-methylimidazo[1,2-a]pyridin-6-yl)-4H-pyrido[1,2-a]pyrimidin-4-one] came in with a melting point of 208 to 213 °C. Also, the EC (1.5-fold increase) in series [1] was less than 0.1 µM. Further, in series [2], the “EC1.5x for Smn protein expression” value is listed as “**** (an EC1.5x≤0.3 μM is indicated by four stars (****))”; the “maximum fold (Fold) increase” value was “**** (a fold increase between >1.5 and ≤1.65 is indicated by four stars (****))”.

With `Cc1nc2ccc(-c3cc(=O)n4cc(N5C[C@@H](C)N[C@@H](C)C5)ccc4n3)cc2o1` [Compound 172, 7-[(3R,5S)-3,5-dimethylpiperazin-1-yl]-2-(2-methyl-1,3-benzoxazol-6-yl)-4H-pyrido[1,2-a]pyrimidin-4-one], the melting point is 233 to 235 °C. Moreover, in series [1], the EC (1.5-fold increase) was less than 0.1 µM. For the same compound, in series [2], the “EC1.5x for Smn protein expression” value is “**** (an EC1.5x≤0.3 μM is indicated by four stars (****))” and the “maximum fold (Fold) increase” value was “***** (a fold increase >1.65 is indicated by five stars (*****))”.

In the case of `COc1ncc(-c2cc(=O)n3cc(N4CCN[C@@H](C)C4)ccc3n2)cc1F` [Compound 173, 2-(5-fluoro-6-methoxypyridin-3-yl)-7-[(3S)-3-methylpiperazin-1-yl]-4H-pyrido[1,2-a]pyrimidin-4-one], the melting point was in the range of 175 to 180 °C. In series [1], the EC (1.5-fold increase) fell in the range of 0.3 to 1 µM. For the same compound, the “maximum fold (Fold) increase” value in series [2] was “** (a fold increase between >1.2 and ≤1.35 is indicated by two stars (**))”.

As for `COc1ncc(-c2cc(=O)n3cc(N4C[C@@H](C)N[C@@H](C)C4)ccc3n2)cc1F` [Compound 174, 7-[(3R,5S)-3,5-dimethylpiperazin-1-yl]-2-(5-fluoro-6-methoxypyridin-3-yl)-4H-pyrido[1,2-a]pyrimidin-4-one], the melting point is 160 to 165 °C. For the same compound, the EC (1.5-fold increase) in series [1] lay within 1 to 3 µM. In series [2], the “maximum fold (Fold) increase” value was “** (a fold increase between >1.2 and ≤1.35 is indicated by two stars (**))”.

Consider `Cc1nc2cc(-c3cc(=O)n4cc(N5C[C@@H](C)N[C@@H](C)C5)ccc4n3)ccc2s1` [Compound 175, 7-[(3R,5S)-3,5-dimethylpiperazin-1-yl]-2-(2-methyl-1,3-benzothiazol-5-yl)-4H-pyrido[1,2-a]pyrimidin-4-one], for which the melting point lay within 208 to 212 °C. In addition, the EC (1.5-fold increase) in series [1] is less than 0.1 µM. In addition, in series [2], the “EC1.5x for Smn protein expression” value is “*** (an EC1.5× between >0.3 μM and ≤1 μM is indicated by three stars (***))”; the “maximum fold (Fold) increase” value is “**** (a fold increase between >1.5 and ≤1.65 is indicated by four stars (****))”.

In turn, `Cc1nc2cc(-c3cc(=O)n4cc(N5CCN(C)CC5)ccc4n3)ccc2s1` [Compound 176, 2-(2-methyl-1,3-benzothiazol-5-yl)-7-(4-methylpiperazin-1-yl)-4H-pyrido[1,2-a]pyrimidin-4-one] returned a melting point of 214 to 218 °C. Besides, the EC (1.5-fold increase) in series [1] is 0.3 to 1 µM. For the same compound, in series [2], the “EC1.5x for Smn protein expression” value is “* (An EC1.5× for Smn protein expression between >3 μM and ≤10 μM is indicated by one star (*))”; the “maximum fold (Fold) increase” value was “*** (a fold increase between >1.35 and ≤1.5 is indicated by three stars (***))”.

`Cc1nc2cc(-c3cc(=O)n4cc(N5CCCN(C)CC5)ccc4n3)ccc2s1` [Compound 177, 2-(2-methyl-1,3-benzothiazol-5-yl)-7-(4-methyl-1,4-diazepan-1-yl)-4H-pyrido[1,2-a]pyrimidin-4-one] gave a melting point of 165 to 170 °C. For the same compound, the EC (1.5-fold increase) in series [1] is 0.1 to 0.3 µM. Also, in series [2], the “maximum fold (Fold) increase” value was “*** (a fold increase between >1.35 and ≤1.5 is indicated by three stars (***))”.

Compound `Cc1nc2cc(-c3cc(=O)n4cc(N5CCN6CCC[C@H]6C5)ccc4n3)ccc2s1` [Compound 178, 7-[(8aS)-hexahydropyrrolo[1,2-a]pyrazin-2(1H)-yl]-2-(2-methyl-1,3-benzothiazol-5-yl)-4H-pyrido[1,2-a]pyrimidin-4-one] gave a melting point of 254 to 256 °C. For the same compound, in series [1], the EC (1.5-fold increase) was in the range of 0.3 to 1 µM. In series [2], the “maximum fold (Fold) increase” value was “** (a fold increase between >1.2 and ≤1.35 is indicated by two stars (**))”.

In turn, `Cc1cn(-c2cc(=O)n3cc(N4CCN[C@@H](C)C4)ccc3n2)cn1` [Compound 180, 2-(4-methyl-1H-imidazol-1-yl)-7-[(3S)-3-methylpiperazin-1-yl]-4H-pyrido[1,2-a]pyrimidin-4-one] had a melting point of 204 to 206 °C. The EC (1.5-fold increase) in series [1] fell in the range of 1 to 3 µM. In addition, in series [2], the “EC1.5x for Smn protein expression” value is “** (an EC1.5× between >1 μM and ≤3 μM is indicated by two stars (**))”; the “maximum fold (Fold) increase” value was “**** (a fold increase between >1.5 and ≤1.65 is indicated by four stars (****))”.

In turn, `CNCCNc1ccc2nc(-c3ccc(OC)c(OC)c3)cc(=O)n2c1` [Compound 181, 2-(3,4-dimethoxyphenyl)-7-{[2-(methylamino)ethyl]amino}-4H-pyrido[1,2-a]pyrimidin-4-one] came in with a melting point of 135 to 138 °C. Further, the EC (1.5-fold increase) in series [1] is 1 to 3 µM. In addition, the “maximum fold (Fold) increase” value in series [2] is recorded as “* (A maximum fold increase of ≤1.2 is indicated by one star (*))”.

The compound `COc1c(F)cc(-c2cc(=O)n3cc(N4CCNCC4)ccc3n2)cc1F` [Compound 183, 2-(3,5-difluoro-4-methoxyphenyl)-7-(piperazin-1-yl)-4H-pyrido[1,2-a]pyrimidin-4-one] yielded a melting point of 167 to 169 °C. Further, the EC (1.5-fold increase) in series [1] fell in the range of 1 to 3 µM. For the same compound, the “maximum fold (Fold) increase” value in series [2] is “** (a fold increase between >1.2 and ≤1.35 is indicated by two stars (**))”.

The compound `COc1c(F)cc(-c2cc(=O)n3cc(N4CCN[C@@H](C)C4)ccc3n2)cc1F` [Compound 184, 2-(3,5-difluoro-4-methoxyphenyl)-7-[(3S)-3-methylpiperazin-1-yl]-4H-pyrido[1,2-a]pyrimidin-4-one] came in with a melting point of 182 to 184 °C. Also, in series [1], the EC (1.5-fold increase) lay within 1 to 3 µM. Also, the “maximum fold (Fold) increase” value in series [2] was “** (a fold increase between >1.2 and ≤1.35 is indicated by two stars (**))”.
